Patent publication US20240174727A1, “LONG-ACTING NATRIURETIC PEPTIDES AND USES THEREOF” (Eli Lilly and Company, priority 2022, published 2024)
Numbered stars: 1 amine (or outer) side, 2 acyl side, 3 side chain; on linkers, the order of the positions; unused ones are H or OH. Bridge positions count the residues as written; N and C are the ends. Square brackets hold non-standard residues; d marks the D form. * marks the point of attachment. C20 diacid = O=C(O)CCCCCCCCCCCCCCCCCCC(=O)*; γGlu = O=C(O)[C@H](CCC(=O)[*:2])N[*:1]; 4Pal = N[C@@H](Cc1ccncc1)C(=O)O; AEEA = NCCOCCOCC(=O)O; CH2 = C([*:1])[*:2]

Molecular target: T1, rat NPRA (Rattus norvegicus, UniProt P18910)
T1 construct: Full-Length cDNA Cloning and Generation of Cell Lines Overexpressing Natriuretic Peptide Receptors (NPRs); expressed in transfected cells; host or cells: Jump-in T-Rex HEK293 cells, pJTI R4 CMV-TO MCS pA vector, tetracycline induction
T1 sequence (P18910 29-1057): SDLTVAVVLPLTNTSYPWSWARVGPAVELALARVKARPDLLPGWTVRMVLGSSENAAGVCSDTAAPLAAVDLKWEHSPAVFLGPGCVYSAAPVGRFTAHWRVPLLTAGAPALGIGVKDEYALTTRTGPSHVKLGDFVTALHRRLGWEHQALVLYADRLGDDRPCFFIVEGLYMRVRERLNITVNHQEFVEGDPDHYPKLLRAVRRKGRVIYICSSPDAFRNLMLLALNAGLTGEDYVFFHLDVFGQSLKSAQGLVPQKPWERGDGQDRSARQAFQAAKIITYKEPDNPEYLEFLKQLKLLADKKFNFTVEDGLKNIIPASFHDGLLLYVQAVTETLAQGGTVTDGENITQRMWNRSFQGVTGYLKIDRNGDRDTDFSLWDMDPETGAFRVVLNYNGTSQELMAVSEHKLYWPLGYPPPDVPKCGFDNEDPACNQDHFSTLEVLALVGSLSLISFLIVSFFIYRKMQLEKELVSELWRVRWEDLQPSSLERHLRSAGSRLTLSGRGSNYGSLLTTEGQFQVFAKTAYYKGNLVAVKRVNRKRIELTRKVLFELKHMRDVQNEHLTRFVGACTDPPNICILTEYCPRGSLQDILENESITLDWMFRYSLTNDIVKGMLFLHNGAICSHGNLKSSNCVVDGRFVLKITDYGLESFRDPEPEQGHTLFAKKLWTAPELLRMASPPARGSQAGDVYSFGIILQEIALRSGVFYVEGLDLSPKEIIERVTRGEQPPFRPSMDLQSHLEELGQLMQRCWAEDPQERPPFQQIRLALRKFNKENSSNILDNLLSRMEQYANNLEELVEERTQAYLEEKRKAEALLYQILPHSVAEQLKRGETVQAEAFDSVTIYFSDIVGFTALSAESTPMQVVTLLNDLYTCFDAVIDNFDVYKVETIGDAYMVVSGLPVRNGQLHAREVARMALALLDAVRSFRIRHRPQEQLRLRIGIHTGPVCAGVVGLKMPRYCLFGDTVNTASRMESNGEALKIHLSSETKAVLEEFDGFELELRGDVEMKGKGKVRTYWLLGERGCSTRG
Experiment: Rat NPRA cGMP activity assay (HTRF) in HEK293 cells overexpressing NPRA
Format: cell-based
Details: assay buffer with 0.1% casein, read-out: cGMP Assay (EC50, pM) w/Casein rNPRA
Protocol: All sequences were verified by full-length sequencing performed by ACGT DNA Sequencing Services (Wheeling, IL). The target cDNA was cloned into pJTI R4 CMV-TO MCS pA vector and then co-transfected with pJT1R4 Int vector into Jump-in™ T-Rex™ HEK293 cells for mammalian inducible expression using Jump-in™ T-Rex™ HEK293 kit and Lipofectamine LTX and Plus Reagent following manufacturer's protocols, as briefly described below.
Jump-in™ T-Rex™ HEK293 cells were plated in a BioCOAT® poly-D-lysine coated 6-well plate (Becton Dickinson, cat no. 354413) at 1 million cells/well in 2 mL culture medium and incubated for 18 h at 37° C. and 5% CO2 to 50-70% confluence. A cDNA mix was made in a 50 mL tube by adding 1.5 μg target cDNA, 1.5 μg pJT1R4 Int vector, 3 μL Plus Reagent, and 300 μL Opti-MEM I sequentially into the tube. A reagent mix was made in a separate 50 mL tube by adding 7.5 μL Lipofectamine LTX into 300 μL Opti-MEM I. The mixtures were incubated for 5 min at room temperature. The cDNA mix was then transferred into the reagent mix, mixed well, and incubated for additional 30 min at room temperature. A 500 μL of cDNA/Lipofectamine complex was then transferred to the wells of the cell plate in which the culture medium was changed to 2 mL of transfection medium containing DMEM with 4.5 g/L D-glucose supplemented with 10% FBS-HI and 20 mM HEPES. Transfected cells were cultured for 48 h in an incubator at 37° C. and 5% CO2. A subclone or pool from each overexpressing cell line was maintained in culture medium with the addition of 2 mg/mL G418 sulfate for the clone selection based on its built-in resistance to G418 sulfate for at least 3 weeks with medium changed every 2-3 days.
NPRs were overexpressed in T-Rex™ HEK293 cells following the induction with 300 ng/mL tetracycline in culture medium for 48 h. Induced cell lines in an exponential growth phase were treated with 0.05% trypsin-EDTA for a few seconds at room temperature, harvested in cell medium containing FBS to neutralize the trypsin, counted, and cryopreserved at the density of 2 million cells/mL in cell preservation solution containing FBS-HI with 5% DMSO. Cryopreserved cells were stored at −80° C. for a few days prior to transferring to a liquid nitrogen tank. Induced cell lines were then used for suspension assays to measure the activity of polypeptides to stimulate cGMP production in cGMP assays or for the preparation of cell membranes to measure the binding activity of polypeptides in competitive radioligand binding assays, as described below.
Test polypeptides were added starting at 10 μM concentration and at 10-fold decreasing concentrations to obtain 8-point concentration-response curves (i.e., 10 μM to 1 pM). The quantity of cGMP generated was detected using HTRF® technology and normalized to maximum amount produced by 100 nM amidated rat ANP and the minimum amount produced by assay buffer. Detailed steps are outlined below.
Stock solutions of test polypeptides (2 mM) dissolved in DMSO were first diluted 100-fold in assay buffer containing HBSS with Ca^2+ and Mg^2+, 5 mM HEPES, 0.5 mM IBMX, and 0.1% BSA or 0.1% casein (pH 7.4). The polypeptides were further serially diluted in 1:10 dilution steps in assay buffer containing 0.1% BSA or 0.1% casein to generate 8-point 2× working stock solutions ranging from 20 μM to […].
A 10 μL cell suspension containing 4000 cells was plated in Costar® half-area white opaque 96-well plates (Corning, cat no. 3693). Then 10 μL of assay buffer (basal activity), 200 nM of amidated rat ANP (maximum activity) or 2× working stock solutions of test polypeptides were transferred into the plate. Final concentration of DMSO in each well was 0.5%. The plate was shaken for 15 sec and then incubated for 40 min at room temperature.
The cGMP generated was measured using cGMP kit following the manufacturer's directions, as described below.

Compound: CC[C@H](C)[C@@H]1NC(=O)[C@H](CCCNC(=N)N)NC(=O)[C@H](CC(=O)O)NC(=O)[C@H]([C@@H](C)CC)NC(=O)[C@H](CCCNC(=N)N)NC(=O)CNC(=O)CNC(=O)[C@H](Cc2ccccc2)NC(=O)[C@@H](NC(=O)[C@H](CO)NC(=O)[C@H](CO)NC(=O)[C@H](CCCNC(=N)N)NC(=O)[C@H](CCCNC(=N)N)NC(=O)[C@H](Cc2ccncc2)NC(=O)[C@H](CO)NC(=O)CCOCCOCCOCCOCCOCCOCCOCCOCCOCCOCCOCCOCCNC(=O)CNC(=O)[C@H](CCCCN)NC(=O)[C@H](CCC(=O)O)NC(=O)[C@H](CCCCN)NC(=O)[C@H](CCC(=O)O)NC(=O)[C@H](CCCCN)NC(=O)[C@H](CCC(=O)O)NC(=O)CC[C@H](NC(=O)CCCCCCCCCCCCCCCCCCC(=O)O)C(=O)O)CSCSC[C@@H](C(=O)N2CCC[C@H]2C(=O)N[C@@H](CO)C(=O)N[C@@H](Cc2ccccc2)C(=O)N[C@@H](CCCNC(=N)N)C(=O)N[C@@H](Cc2c[nH]cn2)C(=O)NCC(=O)NCC(=O)N[C@@H](CCCCN)C(=O)N[C@@H](CO)C(=O)N[C@@H](CO)C(=O)NCC(=O)N[C@@H](C)C(=O)N2CCC[C@H]2C(=O)N2CCC[C@H]2C(=O)N2CCC[C@H]2C(=O)N[C@@H](CO)C(N)=O)NC(=O)CNC(=O)[C@H](CC(C)C)NC(=O)CNC(=O)[C@H](CO)NC(=O)[C@H](CCC(N)=O)NC(=O)[C@H](Cc2c[nH]cn2)NC(=O)CNC1=O [Example 82]
- EC50: 25400 pM

Compound: {C20 diacid-γGlu}-EKEKEKG[AEEA][AEEA][AEEA][AEEA]S[4Pal]RRSSCFGGRIDRIGHQSGLGCPSFRHGGKSSGAPPPS-NH2 (linker 18-34 via CH2) [Example 83]
- EC50: 16700 pM
